# Where a name gives a salt, the structure may show the parent alone.
# Tests used:
# [1] = system: antibody secreting cells in the spleen; assay: Kennedy Plaque Assay (humoral immune system depressed by 6-mercaptopurine; number of plaques); type: in vivo; settings: for change in vivo at 6.25 mg/kg: ip, 60 mg/Kg of 6 MP plus 6.25 mg/Kg (i.p.) of compound, read-out: Percent Restoration (+) or Suppression (-); for percent change from control (i.e., without 6MP): without 6MP treatment, 6.25 mg/Kg (i.p.) of compound
# Procedure: In this assay, in which the in vitro model used was the Kennedy modification of the Jerne (or plaque) technique (J. C. Kennedy et al, Immunol., 20, p. 253 (1971)), the animal's humoral immune system is depressed artificially by the known immunosuppressant drug, 6-mercaptopurine (6-MP), and then the ability of a drug to either suppress it further or restore it towards normal is evaluated. The change in the number of plaques, which is a direct correlate of the change in the number of antibody secreting cells in the spleen, is used to measure this effect. For example, the compound of Example 11 results in greater than 100% restoration of the number of plaques and thus causes an immunoenhancement of the humoral system. In contrast, the compound of Example 28 results in about 24% further suppression of the number of plaques and thus behaves as an immunosuppressant.
# of 6 MP plus 6.25 mg/Kg (i.p.)
# ^1 without 6MP treatment
# ^2 percent change from control (i.e., without 6MP)
# murine marcophage cells = assay: Chemotaxis assay (migration of macrophages toward complement-derived chemoattractant); type: cell-based
# Procedure: In this assay, done according to the methods of R. Synderman et al., Infection & Immunity, 11, p. 488-492 (1975) and M. S. Meltzer et al., J. Natl. Cancer Inst., 54, p. 795-799 (1975), the ability of a drug substance to influence the movement of cells responding to a stimulus induced by some foreign substance or injury is determined. This is vitro assay utilizes a chemoattractant, derived from a component of the immunological system known as complement, to induce murine marcophage cells to migrate toward it. The effect of a drug substance on such movements can be measured by counting the cells. […] For example, the compound of Example 15 stimulates migration by 35.6% at 10^-8 molar concentration and is thus immunoenhancing.
# mouse hepatitis virus = assay: Antiviral assay - hepatitis in mice; type: in vivo; settings: once daily for 3 days; for Mean Liver Score: day 4, 0 (normal) to 4 (extreme discoloration); for Percent Survival: day 21
# Procedure: Female mice weighing approximately 21-24 grams were inoculated with 0.1 ml of a mouse liver suspension containing mouse hepatitis virus, which liver suspension is at a dilution of 10^-5.5. Starting twenty-four hours post-virus inoculation, the animals were intraperitoneally ("i.p.") or orally administered the test compound(s) once daily for 3 days. On day 4, one third to one half of each group of mice were sacrificed and their liver removed for examination. Each liver was scored and assigned a number from 0 (normal liver) to 4 (extreme discoloration). The mean liver score per group was computed. The number of animals surviving until termination of the study (day 21) was also recorded. Anti-hepatitis activity is evidenced by increased survivor numbers and improved liver scores.
# [2] = system: carrageenan-induced paw edemas; assay: Anti-inflammatory assay, carrageenan-induced paw edema; type: in vivo, Male, Sprague-Dawley rats; settings: 50 mg/Kg p.o.; dosed two hours before carrageenan
# Procedure: The anti-inflammatory properties of various compounds of this invention were determined by carrageenan-induced paw edemas of test rats. Male, Sprague-Dawley rats (Blue Spruce Farm) were ordered at 125-140 g, housed for one week, and allowed food and water ad libitum. At the time of the experiments, only rats weighing 160-200 g were used.
# All compounds were dissolved or suspended in a 0.5% water solution of Methocel and orally administered to groups of six rats each. Control rats received Methocel only. Two hours later (unless otherwise stated), paw edema was induced by subcutaneous injection into the plantar surface of the right hind paw of 0.1 ml of a 1.0% homogenized suspension of carrageenan.
# Immediately, the volume of the paw was measured by immersing it in mercury to above the lateral mateolus. The mercury in a glass cylinder 25 mm in diameter and 60 mm deep was connected at the bottom on the cylinder by a column of water to a Statham transducer (model P23BB), range 0-5 cm of mercury pressure. The volume was recorded electronically on a Beckman recorder, R511. Three hours later, the inflamed paw volume was measured again, and the change in volume was recorded for each group. The percent inhibition of edema was calculated using the control group paw volume as 100% edema, i.e., as (the change in edema in the control group less the change in edema in the test group) times 100 divided by the change in edema in the control group.
# [3] = 12.5 mg/Kg i.p., control 2.6 (Examples 11, 16, 23), 3.4 (25, 26)
# [4] = 12.5 mg/Kg i.p., control 5% (Examples 11, 16, 23), 6% (25, 26)
# [5] = 25 mg/Kg i.p., control 2.6 (Examples 11, 23), 3.4 (25, 26)
# [6] = 25 mg/Kg i.p., control 5% (Examples 11, 23), 6% (25, 26)
structure (smiles),measurement,setting,value
"CSC1CCN2CC(c3ccccc3)N=C12 (stereo not drawn) [Example 1, 2,5,6,7-Tetrahydro-2-phenyl-7-methylthio-3H-pyrrolo[1,2-a]imidazole hydrochloride]",change in vivo at 6.25 mg/kg,[1],72%
same,Percent Inhibition (-) or Enhancement (+) of migration,murine marcophage cells; 10^-5 m,-25.4%
same,Percent Inhibition (-) or Enhancement (+) of migration,murine marcophage cells; 10^-7 m,-8.8%
same,Percent Inhibition (-) or Enhancement (+) of migration,murine marcophage cells; 10^-8 m,-17.5%
same,Percent Inhibition (-) or Enhancement (+) of migration,murine marcophage cells; 10^-9 m,-29.7%
same,Percent Inhibition (-) or Enhancement (+) of migration,murine marcophage cells; 10^-10 m,-68.2%
same,Percent Inhibition (-) or Enhancement (+) of migration,murine marcophage cells; 10^-11 m,-36.8%
same,inhibition at 0.0001 µM,"murine marcophage cells; Mus musculus, Macrophage, 10^-10 molar concentration, read-out: inhibits migration",68.2%
"c1ccc(SC2CCN3CC(c4ccccc4)N=C23)cc1 (stereo not drawn) [Example 2, 2,5,6,7-Tetrahydro-2-phenyl-7-phenyl-thio-3H-pyrrolo[1,2-a]imidazole hydrochloride]",change in vivo at 6.25 mg/kg,[1],29%
"COc1ccc(CSC2CCN3CC(c4ccccc4)N=C23)cc1 (stereo not drawn) [Example 3, 2,5,6,7-Tetrahydro-2-phenyl-7-p-methoxybenzylthio-3H-pyrrolo[1,2-a]imidazole hydrochloride]",change in vivo at 6.25 mg/kg,[1],108%
same,Percent Inhibition (-) or Enhancement (+) of migration,murine marcophage cells; 10^-5 m,-94.9%
same,Percent Inhibition (-) or Enhancement (+) of migration,murine marcophage cells; 10^-7 m,-64.5%
same,Percent Inhibition (-) or Enhancement (+) of migration,murine marcophage cells; 10^-8 m,-43.0%
same,Percent Inhibition (-) or Enhancement (+) of migration,murine marcophage cells; 10^-9 m,-29.2%
"CCCCSC1CCN2CC(c3ccccc3)N=C12 (stereo not drawn) [Example 7, 2,5,6,7-Tetrahydro-2-phenyl-7-n-butylthio-3H-pyrrolo[1,2-a]imidazole hydrochloride]",change in vivo at 6.25 mg/kg,[1],-49%
"COc1ccc(C2CN3CCC(Sc4ccccc4)C3=N2)cc1 (stereo not drawn) [Example 8, 2,5,6,7-Tetrahydro-2-p-methoxyphenyl-7-phenylthio-3H-pyrrolo[1,2-a]imidazole hydrochloride]","percent change from control (i.e., without 6MP)",[1],-36%
"CSC1CCCN2CC(c3ccccc3)N=C12 (stereo not drawn) [Example 10, 2,3,5,6,7,8-Hexahydro-2-phenyl-8-methylthioimidazo[1,2-a]pyridine hydrochloride]",change in vivo at 6.25 mg/kg,[1],55%
same,Percent Inhibition (-) or Enhancement (+) of migration,murine marcophage cells; 10^-5 m,-94.1%
same,Percent Inhibition (-) or Enhancement (+) of migration,murine marcophage cells; 10^-7 m,-94.4%
same,Percent Inhibition (-) or Enhancement (+) of migration,murine marcophage cells; 10^-8 m,-88.4%
same,Percent Inhibition (-) or Enhancement (+) of migration,murine marcophage cells; 10^-9 m,-91.7%
same,Percent Inhibition (-) or Enhancement (+) of migration,murine marcophage cells; 10^-10 m,-97.4%
same,Percent Inhibition (-) or Enhancement (+) of migration,murine marcophage cells; 10^-11 m,-97.3%
"c1ccc(SC2CCCN3CC(c4ccccc4)N=C23)cc1 (stereo not drawn) [Example 11, 2,3,5,6,7,8-Hexahydro-2-phenyl-8-phenylthioimidazo[1,2-a]pyridine sulfate (1:1) salt]",change in vivo at 6.25 mg/kg,[1],125%
same,restoration of the number of plaques,[1]; with 6-MP,greater than 100%
same,Mean Liver Score,"mouse hepatitis virus; 6.25 mg/Kg i.p., control 2.6",2.0
same,Percent Survival,"mouse hepatitis virus; 6.25 mg/Kg i.p., control 5%",10%
same,Mean Liver Score,mouse hepatitis virus; [3],1.8
same,Percent Survival,mouse hepatitis virus; [4],40%
same,Mean Liver Score,mouse hepatitis virus; [5],1.8
same,Percent Survival,mouse hepatitis virus; [6],40%
"Cc1ccc(SC2CCCN3CC(c4ccccc4)N=C23)cc1 (stereo not drawn) [Example 12, 2,3,5,6,7,8-Hexahydro-2-phenyl-8-p-tolylthioimidazo[1,2-a]pyridine sulfate (1:1) salt]",change in vivo at 6.25 mg/kg,[1],50%
"Clc1ccc(SC2CCCN3CC(c4ccccc4)N=C23)cc1 (stereo not drawn) [Example 13, 2,3,5,6,7,8-Hexahydro-2-phenyl-8-p-chlorophenylthioimidazo[1,2-a]pyridine sulfate (1:1) salt]",change in vivo at 6.25 mg/kg,[1],103%
"c1ccc(CSC2CCCN3CC(c4ccccc4)N=C23)cc1 (stereo not drawn) [Example 14, 2,3,5,6,7,8-Hexahydro-2-phenyl-8-benzylthioimidazo[1,2-a]pyridine fumarate (1:1) salt]",Percent Inhibition (-) or Enhancement (+) of migration,murine marcophage cells; 10^-5 m,-29.1%
same,Percent Inhibition (-) or Enhancement (+) of migration,murine marcophage cells; 10^-7 m,-51.0%
same,Percent Inhibition (-) or Enhancement (+) of migration,murine marcophage cells; 10^-8 m,-51.0%
same,Percent Inhibition (-) or Enhancement (+) of migration,murine marcophage cells; 10^-9 m,-50.7%
same,Percent Inhibition (-) or Enhancement (+) of migration,murine marcophage cells; 10^-10 m,-10.2%
same,Percent Inhibition (-) or Enhancement (+) of migration,murine marcophage cells; 10^-11 m,-44.5%
"COc1ccc(CSC2CCCN3CC(c4ccccc4)N=C23)cc1 (stereo not drawn) [Example 15, 2,3,5,6,7,8-Hexahydro-2-phenyl-8-p-methoxybenzylthioimidazo[1,2-a]pyridinefumarate (1:1) salt]",change in vivo at 6.25 mg/kg,[1],54%
same,Percent Inhibition (-) or Enhancement (+) of migration,murine marcophage cells; 10^-5 m,+2.6%
same,Percent Inhibition (-) or Enhancement (+) of migration,murine marcophage cells; 10^-7 m,+30.1%
same,Percent Inhibition (-) or Enhancement (+) of migration,murine marcophage cells; 10^-8 m,+35.6%
same,Percent Inhibition (-) or Enhancement (+) of migration,murine marcophage cells; 10^-9 m,+31.8%
same,Percent Inhibition (-) or Enhancement (+) of migration,murine marcophage cells; 10^-10 m,+33.8%
same,Percent Inhibition (-) or Enhancement (+) of migration,murine marcophage cells; 10^-11 m,-1.2%
same,activation at 0.01 µM,"murine marcophage cells; Mus musculus, Macrophage, 10^-8 molar concentration, read-out: stimulates migration",35.6%
"CSC1(SC)CCCN2CC(c3ccccc3)N=C21 (stereo not drawn) [Example 16, 2,3,5,6,7,8-Hexahydro-2-phenyl-8,8-di(methylthio)imidazo[1,2-a]pyridine hydrochloride]",change in vivo at 6.25 mg/kg,[1],-25%
same,Mean Liver Score,"mouse hepatitis virus; 6.25 mg/Kg i.p., control 2.6",1.5
same,Percent Survival,"mouse hepatitis virus; 6.25 mg/Kg i.p., control 5%",60%
same,Mean Liver Score,mouse hepatitis virus; [3],2.0
same,Percent Survival,mouse hepatitis virus; [4],90%
"c1ccc(SC2(Sc3ccccc3)CCCN3CC(c4ccccc4)N=C32)cc1 (stereo not drawn) [Example 17, 2,3,5,6,7,8-Hexahydro-2-phenyl-8,8-di(phenylthio)imidazo[1,2-a]pyridine fumarate]","percent change from control (i.e., without 6MP)",[1],-37%
same,Percent Inhibition of carrageenan induced edema,[2],38.6%
"CC(C)SC1CCCN2CC(c3ccccc3)N=C12 (stereo not drawn) [Example 18, 2,3,5,6,7,8-Hexahydro-2-phenyl-8-i-propylthioimidazo[1,2-a]pyridine sulfate]",change in vivo at 6.25 mg/kg,[1],97%
same,Percent Inhibition of carrageenan induced edema,[2],40.4%
"COC1(OC)CCN2CC(c3ccccc3)N=C21 (stereo not drawn) [Example 25, 2,5,6,7-Tetrahydro-2-phenyl-7,7-dimethoxy-3H-pyrrolo[1,2-a]imidazole sulfate]",Mean Liver Score,mouse hepatitis virus; [3],2.6
same,Percent Survival,mouse hepatitis virus; [4],0%
same,Mean Liver Score,mouse hepatitis virus; [5],1.1
same,Percent Survival,mouse hepatitis virus; [6],0%
same,Mean Liver Score,"mouse hepatitis virus; 50 mg/Kg i.p., control 3.4",1.2
same,Percent Survival,"mouse hepatitis virus; 50 mg/Kg i.p., control 6%",0%
"COC1(OC)CCCN2C1=NCC2c1ccccc1 (stereo not drawn) [Example 26, 2,3,5,6,7,8-Hexahydro-3-phenyl-8,8-dimethoxy imidazo[1,2-a]pyridine hydrochloride]",Mean Liver Score,mouse hepatitis virus; [3],2.7
same,Percent Survival,mouse hepatitis virus; [4],0%
same,Mean Liver Score,mouse hepatitis virus; [5],2.3
same,Percent Survival,mouse hepatitis virus; [6],0%
"[O-][S+](c1ccccc1)C1CCCN2CC(c3ccccc3)N=C12 (stereo not drawn) [Example 28, 2,3,5,6,7,8-Hexahydro-2-phenyl-8-phenylsulfinylimidazo[1,2-a]pyridine sulfate]",change in vivo at 6.25 mg/kg,[1],-24%
same,further suppression of the number of plaques,[1]; with 6-MP,about 24%
"c1ccc(SC2(Sc3ccccc3)CCCn3cc(-c4ccccc4)nc32)cc1 [Example 33, 5,6,7,8-Tetrahydro-2-phenyl-8,8-diphenylthio imidazo[1,2-a]pyridine]",change in vivo at 6.25 mg/kg,[1],25%
